Values after ≈ are worked out from the molar mass of the structure shown.
Tests used:
Oidium lini = assay: Field efficiency test, flax powdery mildew; type: in vivo; settings: 0.50 mg/mL (active ingredients)
Protocol: (§1) The formulation of emulsifiable concentrate is the same as that in Embodiment 3.
The variety of flax is Zhangya No. 2. 10% of 3-(3',4'-methylenedioxy phenyl)-N-n-propyl acrylamide EC and 14% of 3-(3',4'-methylenedioxy phenyl)-piperidine acrylate EC were both diluted at a concentration of 0.50 mg/mL (active ingredients); the control agent, 430 g/L of tebuconazole SC, was also diluted at a concentration of 0.50 mg/mL (active ingredients); additionally clear water was used as the control. The first application was started at the first appearance of spots for flax powdery mildew (Oidium lini) (natural incidence), and the second application was carried out 10 days later. The instrument for application was a WS-18D knapsack electric sprayer, which employed a cone nozzle. Each agent was formulated into the desired concentrations according to the usage amount of the control clear water. Both sides of the leaves were sprayed evenly. 10 days after the second application, the number of sick leaves at each grade of powdery mildew was investigated for the whole plant following the grading standard of 9 grades, to calculate the disease index and the control effect.

E. cichoracearum = assay: Field efficiency test, cucumber powdery mildew; type: in vivo; settings: 0.50 mg/mL (active ingredients)
Protocol: as §1
10% of 3-(3',4'-methylenedioxy phenyl)-N-n-propyl acrylamide EC and 14% of 3-(3',4'-methylenedioxy phenyl)-piperidine acrylate EC were diluted at a concentration of 0.50 mg/mL (2000 fold liquid of active ingredients); the control agent, 10% of dimethomorph EW, was also diluted at a concentration of 0.50 mg/mL (2000 fold liquid of active ingredients); the control agent, 80% of mancozeb WP, was diluted at a concentration into a 500 fold liquid according to the usage amount of the formulation; the control agents, 12.5% of myclobutanil EC, 25% of propiconazole EC, 430 g/L of tebuconazole SC, 10% of hexaconazole EC and 37% of difenoconazole EC were all diluted at a concentration into 1500 fold liquids according to the usage amount of the formulation; additionally clear water was used as the control. The first application was started on June 15th, and E. cichoracearum was inoculated on June 17th (the sick leaves were harvested from the solar greenhouse near the military airfield at Xiaguanying town, Yuzhong County, moisturized in the greenhouse for 2 days, then shreded, and filtered over a gauze, the filtrate was sprayed onto both sides of the cucumber leaves with the cone nozzle of an electric sprayer for inoculation). […]

Phytophthora infestans = assay: microbe, parasite or virus in culture; type: cell-based; settings: 1 mg/mL
Leveillula taurica = assay: In-vivo greenhouse control of pepper powdery mildew
Protocol: (§2) 5.61 g of 3-(3',4'-methylenedioxy phenyl)-piperidine acrylate was weighed and dissolved in 25 g of absolute ethyl alcohol, then 6 g of emulsifier 0203B was added, and mixed uniformly with stirring to get 14% of 3-(3',4'-methylenedioxy phenyl)-piperidine acrylate EC.
Pepper seedling (Variety: Bell pepper) was carried out in a greenhouse, and the seedlings were transplanted into pots, 3 for each pot. Sick leaves of powdery mildew (Leveillula taurica) were harvested form peppers (Longjiao No. 2) in a solar greenhouse in Jingyuan County, Baiyin City, and formulated into a spore suspension of powdery mildew. Both sides of the pepper leaves were sprayed evenly with a small hand-held sprayer and inoculated. The first application was started at the early onset of powdery mildew. 14% of 3-(3',4'-methylenedioxy phenyl)-piperidine acrylate EC was diluted at four concentrations of 1.00, 0.667, 0.50 and 0.40 mg/mL (active ingredients); the control agent, 12.5% of myclobutanil EC, was diluted at a concentration of 0.063 mg/mL (active ingredients); additionally clear water was used as the control. The instrument for application is a small hand-held sprayer. Both sides of the leaves were sprayed evenly so that the leaves were wetted by the liquor without loss. Applications were conducted every 7 days consecutively for 3 times. 10 days after the third application, the disease extent of powdery mildew in the upper, middle and lower 3 leaves of each plant was investigated, to calculate the disease index and the control effect.

Fusarium graminearum = assay: microbe, parasite or virus in culture; type: cell-based; settings: for EC50: median inhibition concentration
[1] = test system: damping-off (P. aphanidermatum, P.capsici); assay: In-vivo greenhouse control of damping-off of peppers; settings: Pepper; sick soil; 0.80 mg/mL (active ingredients)
Protocol: (§3) 3.88 g of 3-(3',4'-methylenedioxy phenyl)-N-n-propyl acrylamide was weighed and dissolved in 25 g of absolute ethyl alcohol, then 6 g of emulsifier 0203B was added, and mixed uniformly with stirring to get 10% of 3-(3',4'-methylenedioxy phenyl)-N-n-propyl acrylamide EC.
as §2
(§4) Sick soil of damping-off (P. aphanidermatum, P.capsici) was collected from the fields of tomatoes, eggplants and peppers in a solar greenhouse, and mixed evenly in equal proportion. Tomatoes (Variety: Song Tian Fen Yang Yang, 100 grains), eggplants (Variety: Lanza No. 2 F1 long eggplant, 100 grains), pepper (Longjiao No. 2 F1, 100 grains) were seeded quantitatively with the sick soil in pots (diameter: 15 cm) in a greenhouse, additionally with sterile vermiculite as the control (each 100 grains for determining the germination rate). […] Mortality of seedlings was investigated after the seedlings had grown 2 true leaves, and the control effect of each treatment on damping-off was calculated. […]

[2] = test system: damping-off (P. aphanidermatum, P.capsici); assay: In-vivo greenhouse control of damping-off of tomatoes; settings: Tomato; sick soil; 0.80 mg/mL (active ingredients)
Protocol: as §3, §2, §4

Q: Which results are given for `CCCNC(=O)/C=C/c1ccc2c(c1)OCO2` [3-(3',4'-methylenedioxyphenyl)-N-n-propyl acrylamide]?
A: Control Effect (Oidium lini): 83.70%; Control Effect (E. cichoracearum): 88.38%; Average Diameter of the Colony (Phytophthora infestans): 0.00 cm

Q: Which “Control Effect” value (Oidium lini) does the source give for `O=C(/C=C/c1ccc2c(c1)OCO2)N1CCCCC1` [3-(3',4'-methylenedioxyphenyl)-piperidine acrylate] here?
A: 41.82%

Q: What about the “Control Effect” value (E. cichoracearum) of the same molecule?
A: 69.84%

Q: What about the “Average Diameter of the Colony” value (Phytophthora infestans) of the same molecule?
A: 0.00 cm

Q: And the “Control Effect” value (Leveillula taurica; 0.50 mg/mL)?
A: 75.56%

Q: And the “Control Effect” value (Leveillula taurica; 0.667 mg/mL)?
A: 84.56%

Q: And the “Control Effect” value (Leveillula taurica; 1.00 mg/mL)?
A: 100%

Q: And the “Relative Toxicity (Compared to Chlorothalonil)” value (Fusarium graminearum; EC50 of chlorothalonil / EC50 of agent)?
A: 5.89

Q: What about the “Relative Toxicity (Compared to Procymidone)” value (Fusarium graminearum; EC50 of procymidone / EC50 of agent) of the same molecule?
A: 1.80

Q: And the EC50 (Fusarium graminearum)?
A: 80 µg/mL (≈ 309 µM)

Q: And the EC50 (Fusarium graminearum; listed as 66#)?
A: 79.6 µg/mL (≈ 307 µM)

Q: What about the “Control Effect” value [1] of the same molecule?
A: 67.71%

Q: What about the “Control Effect” value [2] of the same molecule?
A: 61.41%

Reference: EP3818828A1 (priority 2019, dated 2021)
